How the values were obtained:
[1] = tested on: H9C2 rat heart cardiomyocyte cells; assay: Total antioxidant capacity (copper reducing equivalents) of cardiomyocytes; format: cell-based; conditions: 5 μM treatment
Source text: (§1) DG-3, provided herein, is a standardized extract derived from annatto seeds that contains only […] and GT3. Because radiation-induced mitochondrial damage and oxidative stress impacts several critical biologic parameters such as DNA damage repair and stem cell fate, in this research we have compared the effects of DT3, GT3, and DG-3 against radiation induced mitochondrial dysfunction and oxidative stress. […] Furthermore, the same treatment preserved the cell viability and mitochondrial respiration in these cells when followed by oxidative insult via H2O2 treatment. Methods of making DG-3 and methods of using these compositions are provided herein.

[2] = tested on: H9c2 heart cardiomyocytes; assay: Cellular bioenergetics measurements (oxygen consumption rate, XF96 Seahorse); format: cell-based, rat; conditions: for Effect of H2O2 treatment on OCR after pre-treatment: 5 μM overnight pre-treatment
Experimental: H9C2 heart cardiomyocytes were treated with 5 μM DT3 or 5 μM DG-3 or vehicle control (DMSO) overnight. Oxygen Consumption Rates (OCR) were measured and cellular bioenergetics profiles were determined using XF96 Seahorse Extracellular Flux Analyzer.
FIG. 6 is a graph showing the effects of hydrogen peroxide on the OCR of cardiomyocytes after the indicated treatments. H9C2 heart cardiomyocytes were exposed to 50 or 100 μM H2O2 for 4 h. Oxygen Consumption Rates (OCR) were measured and cellular bioenergetics profiles were determined using XF96 Seahorse Extracellular Flux Analyzer.
(§2) FIG. 7 is a graph showing the effects of 50 μM hydrogen peroxide on the OCR of cardiomyocytes after the indicated pre-treatment with DMSO (dimethylsulfoxide vehicle), DT3 or DG-3. Cellular bioenergetic profiles were determined using XF96 Seahorse Extracellular Flux Analyzer.
FIG. 8 is a graph showing the effects of 100 μM hydrogen peroxide on the OCR of cardiomyocytes after the indicated pre-treatment with DMSO (dimethylsulfoxide vehicle), DT3 or DG-3. Cellular bioenergetic profiles were determined using XF96 Seahorse Extracellular Flux Analyzer.
as §2, with “9” for “7”, “6 Gy ionizing radiation” for “50 μM hydrogen peroxide”, “vehicle).” for “vehicle),”, “Analyzer 1 h following radiation exposure.” for “Analyzer.”
Cellular oxygen consumption rates (OCR) were measured at 37° C. using an XF96 extracellular analyzer (Seahorse Bioscience) as previously described (Ferrick D A, Neilson A, and Beeson C. Advances in measuring cellular bioenergetics using extracellular flux. Drug Discov Today 2008; 13: 268-274). Briefly, 10,000 H9C2 cells per well were plated. The cells were treated with 5 μM DT3 or 5 μM DG-3 or vehicle control (DMSO) overnight. Cells were then exposed to 0, 50 or 100 μM H2O2 for 4 h or 6 Gy ionizing radiation (IR). The media in the wells were changed to unbuffered Dulbecco's Modified Eagle Medium (DMEM) supplemented with 4 mM […] and incubated in a non-CO2 incubator for 1 h at 37° C. Three baseline measurements were acquired before injection of mitochondrial inhibitors or uncouplers. Readings were taken after sequential addition of oligomycin (10 μM), FCCP (10 μM), and rotenone/antimycin A (10 μM). OCR was calculated by the Seahorse XF96 software and represents an average of 12-16 measurements.

[3] = tested on: Wistar rat liver microsomes; assay: Inhibition of TBHP induced lipid peroxidation in rat liver microsomes; format: biochemical; conditions: rat liver microsomes 1 mg/ml, 1 h pre-incubation at 37° C., 200 μM TBHP for 30 min; read-out: IC50 inhibition of lipid peroxidation (antioxidant potential)
Experimental: Data are means±SEM of triplicate experiments. One of the most well-known properties of the vitamin E components is their ability to prevent lipid peroxidation. See Traber et al. (2011) Free Radic Biol Med 51(5):1000-1013. Briefly, the antioxidant activity of DG-3 was evaluated in rat liver microsomes by measuring inhibition of lipid peroxidation after TBHP ([…]) treatment. Wistar rat liver microsomes (BD Biosciences) were diluted in phosphate buffer, 0.1 M (pH 7.4), at the final protein concentration of 1 mg/ml. The microsomes were treated with different concentrations of DG-3 or DT3 (diluted with DMSO) and incubated at 37° C. for 1 hour before inducing lipid peroxidation with 200 μM TBHP (DMSO) for 30 min.

[4] = tested on: H9c2 heart cardiomyocytes; assay: Morphology assay of cardiomyocytes exposed to H2O2; format: cell-based, rat
Experimental: FIG. 3 is a set of photographs showing the cardiomyocytes after the indicated treatments. H9C2 heart cardiomyocytes were treated with 5 μM DT3 or 5 μM DG-3 or vehicle control (DMSO) overnight. Cells were then exposed to H2O2 for 4 h. Morphological changes were recorded under an inverted microscope.
as §1
H9c2 heart cardiomyocytes were treated with 5 μM DT3 or 5 μM DG-3 or vehicle control (DMSO) overnight. Cells were then exposed to 100 or 200 μM H2O2 for 4 h. Morphological changes were recorded under an inverted microscope.

[5] = 5 μM treatment followed by H2O2 treatment

- IC50 [3]: 2580 nM
Structure (SMILES): CC(C)=CCC/C(C)=C/CC/C(C)=C/CC[C@]1(C)CCc2cc(O)cc(C)c2O1 [DT3, δ-tocotrienol]
- Total antioxidant capacity (copper reducing equivalents) [1]: did not change
- Effect of H2O2 treatment on OCR after pre-treatment ([2]; 50 μM H2O2 for 4 h (FIG. 7)): eliminated
- Effect of H2O2 treatment on OCR after pre-treatment ([2]; 100 μM H2O2 for 4 h (FIG. 8)): significantly reduced
- Oxygen consumption rate (OCR) compared to controls ([2]; 5 μM overnight, no H2O2 (FIG. 5)): modestly improved
- Mitochondrial respiration after oxidative insult via H2O2 [2, 5]: preserved
- Morphological changes (cell damage) after H2O2 ([4]; 5 μM overnight pre-treatment, then 100 μM H2O2 for 4 h): damage is limited
- Morphological changes (cell monolayer) after H2O2 ([4]; 5 μM overnight pre-treatment, then 200 μM H2O2 for 4 h): still maintain a monolayer with only a few rounded cells
- Cell viability after oxidative insult via H2O2 [4, 5]: preserved
